# Experimental data: EP0714404B1, “ANTI-INFLAMMATORY PEPTIDES” (CURATIVE TECHNOLOGIES, INC., priority 1993, dated 1995)
# Read-outs that look alike come from different tables or passages of the source. Residues, ends and D or L forms follow the SMILES beside them.
# Tests used:
# [1] = test system: collagen-induced arthritis; assay type: in vivo, Mice
# Experimental: Mice (DBA/1, 10-12 weeks old, Jackson Laboratories) were randomly assigned to one of 3 groups of […]. CT-112 (SEQ. ID NO: 1) was prepared for injection by dissolving in sterile PBS. CT-112 (SEQ. ID NO: 1) was administered daily according to the following schedule: • a) Control animals (0.1 ml of sterile PBS) (7 mice); • b) Low dose CT-112 (0.1 ml sterile PBS containing 0.25 mg CT-112 at 10 mg/kg) (8 mice); and • c) High dose CT-112 (0.1 ml sterile PBS containing 2.5 mg of CT-112 at 100 mg/kg) (8 mice). Three days after initial dosing with CT-112 (SEQ. ID NO: 1), all mice were injected intradermally at the base of the tail with 100 µg of bovine type-II collagen in Freund's complete adjuvant. Mice were monitored daily for the onset of disease, and weighed twice weekly with overall health status noted. Arthritis-affected animals were clinically assessed 5 times per week until 10 weeks post-immunization. Paw measurements were taken 3 times per week. Mice lacking signs of arthritis 10 weeks post-immunization were considered disease-free. All mice were pre-bled prior to the start of the trial, subsequently again at 2 and 4 weeks post-immunization, again at the onset of CIA, and finally at the termination of the study. Sera were separated and stored at -80°C. ELISA assays were performed to determine anti-collagen antibody concentrations. Spleen and lymph nodes were removed at sacrifice, and single cell suspensions prepared therefrom. Mitogen responses to Con A and LPS, as well as antigen-specific responses to type-II collagen, were determined. Appropriate statistical comparisons (Chi square, Student's T-test and non-parametric median comparisons) were performed using SPSS/PC software to assess the influence of CT-112 (SEQ. ID NO: 1) at both low and high doses on the incidence, onset, severity and progression of collagen-induced arthritis, the antibody response to collagen, T-cell and B-cell mitogen responses, and T-cell specific responses to type-II collagen.
# [2] = test system: Delayed Type Hypersensitivity; assay type: in vivo, mice
# Experimental: CT-112 (SEQ. ID NO: 1) was tested for its ability to modulate the immune response in a mouse model of delayed hypersensitivity (Filipp et al., 1984, Allergy, 39: 499-507; Diezel et al., 1989 J. Invest. Dermatol. 93:322-326). The mice used in this study were 8-wk old hairless females (Jackson Laboratories). The mice were sensitized to a contact allergen (1-chloro-2,4-dinitrobenzene, DNCB) by painting the dorsothoracic region twice daily for 5 consecutive days with 50 µl of 0.5% DNCB in 75% acetone:25% vegetable oil. The animals were allowed to rest for 24 hr prior to challenge with DNCB. On the sixth day after initiation of the sensitization treatments, the animals were challenged with 50 µl of DNCB solution applied to the left ear. After 24 hrs, the ear thickness was determined and compared to the unchallenged ear.
# The treatment groups were as follows: • a) PBS control; • b) Prednisone (intraperitoneal injection of 25 mg/kg, 2 hr prior to challenge); • c) 7-day pump (60 mg CT-112/kg/24 hr); • d) CT-112 (intraperitoneal injections of 60 mg/kg/injection at 3, 1, and 0.25 hr prior to challenge and 3, 6 and 21 hr post-challenge); • e) DMSO control (topical application of 50 µl at 3, 1 and 0.25 hr prior to challenge; and • f) CT-112 in DMSO (20 mg/ml, topical application of 50 µl at 3, 1, and 0.25 hr prior to challenge and 3, 6 and 21 hr post-challenge).
# Salmonella = Salmonella reverse mutation assay; assay type: cell-based; conditions: 100-5,000 µg/ml, with or without rat liver microsomal enzyme activation
# From the text: The mutagenic potential of CT-112 (SEQ. ID NO: 1) has been assessed.
# leukotriene B4 (LTB4) = test: carrageenan peritonitis, LTB4 content of peritoneal lavage fluid; assay type: in vivo, Mice; conditions: 60 mg/kg/day; 24 hr post-challenge
# Experimental: (§1) Mice (C57BL/6UAF, females, 12 weeks old) were implanted with Alzet mini pumps set to deliver 60 mg CT-112/kg/day. Six days post-implantation, the mice were challenged with an intraperitoneal injection of 0.3 ml of carrageenan in PBS (10 mg/ml). The peritoneal cavity was lavaged with 15 ml of Hank's Balanced Salt Solution (Ca^2+- and Mg^2+-free) at 24, 48 and 72 hr post-challenge. The lavage fluid was centrifuged (500 g, 5 min), fixed with LeukoStat fixative and stained with LeukoStat staining solution. The slides were analyzed under a microscope for the different types of inflammatory cells, such as macrophages, lymphocytes and neutrophils. At the 48-hr time point, 5 control mice were also lavaged.
# (§2) In a separate study, the peritoneal lavage fluid was analyzed for total leukotriene B4 (LTB4) and prostaglandin E2 (PGE2) content at 24 hr post-challenge (Griswold et al., 1991, Biochem. Pharmacol. 42(4):825-831).
# Inflammatory Cell Influx = test: carrageenan-induced model of peritonitis, inflammatory cell influx; assay type: in vivo, Mice; conditions: pump 60 mg CT-112/kg/day
# Experimental: as §1
# acute toxicity in mice = assay type: in vivo; conditions: intravenous 100, 500 or 1,000 mg/kg
# Experimental: Acute toxicity of CT-112 (SEQ. ID NO: 1) in mice and rats was assessed. Mice were dosed by intravenous injection with CT-112 (SEQ. ID NO: 1) at 100, 500 or 1,000 mg/kg.
# prostaglandin E2 (PGE2) = test: carrageenan peritonitis, PGE2 content of peritoneal lavage fluid; assay type: in vivo, Mice; conditions: 60 mg/kg/day; 24 hr post-challenge
# Experimental: as §1, §2
compound,measurement,setting,value
"CC(C)[C@H](NC(=O)[C@H](CCC(N)=O)NC(=O)[C@H](CO)NC(=O)[C@@H](NC(=O)[C@@H](N)[C@@H](C)O)[C@@H](C)O)C(=O)N[C@@H](CCCNC(=N)N)C(=O)N1CCC[C@H]1C(=O)N[C@@H](CCCNC(=N)N)C(=O)O [CT-112, Thr-Thr-Ser-Gln-Val-Arg-Pro-Arg] (H-TTSQVRPR-OH)",Antibody reduction (anti-collagen antibody titer in mouse serum),"[1]; 4 wks post-immunization, high dose group, p=0.028",statistically significant
same,effects on synovitis and pannus,[1]; both high and low doses,not significant
same,disease-induced joint erosion (histopathology),"[1]; both high and low doses, FIGURE 13",reducing
same,disease-induced loss of joint architecture (histopathology),"[1]; both high and low doses, p ≤ 0.05, FIGURE 13",significantly reducing
same,Spleen cell response to Con A and to LPS,[1]; cells from treated mice,neither immunosuppression nor immunoactivation
same,final incidence of CIA,"[1]; high dose, 100 mg/kg daily",50%
same,onset of arthritis,"[1]; low (10 mg/kg) and high (100 mg/kg) daily doses, compared to control mice",somewhat retarded
same,antibody titers at the conclusion of the trial,[1]; low dose group vs control mice,significantly higher
same,final incidence of CIA,"[1]; low dose, 10 mg/kg daily",62.5%
same,involved paws characterized as in remission at the conclusion of the trial,"[1]; low dose, 10 mg/kg daily",25%
same,progression of arthritis to paws,"[1]; low dose, 10 mg/kg daily, p=0.035 vs control",significantly fewer paws
same,Maximum paw swelling,"[1]; mouse, in vivo",not influenced
same,weight gain,"[1]; mouse, in vivo",gained weight at the same rate
same,Cellular responses to mitogens and antigen (type-II collagen) in lymph node cells,[1]; treated mice vs control animals,similar
same,Thickness Difference (Left-Right),"[2]; 7-day pump, 60 mg CT-112/kg/24 hr",0.00087 ± 0.000398 in
same,Thickness Difference (Left-Right),"[2]; ip 60 mg/kg/injection at 3, 1, 0.25 hr prior and 3, 6, 21 hr post-challenge",0.00169 ± 0.000643 in
same,Thickness Difference (Left-Right),"[2]; topical, 20 mg/ml in DMSO, 50 µl at 3, 1, 0.25 hr prior and 3, 6, 21 hr post-challenge",0.0035 ± 0.000408 in
same,number of revertants (histidine independent growth),Salmonella,did not cause an increase
same,LTB4,leukotriene B4 (LTB4),16.8 ± 11.5(5) pg in peritoneal lavage
same,Absolute Cell Number Lymphocytes,Inflammatory Cell Influx; 24 hr post carrageenan,16.9 ± 5.9
same,Absolute Cell Number Macrophages,Inflammatory Cell Influx; 24 hr post carrageenan,19.5 ± 10
same,Absolute Cell Number Neutrophils,Inflammatory Cell Influx; 24 hr post carrageenan,106 ± 29
same,Absolute Cell Number Lymphocytes,Inflammatory Cell Influx; 48 hr post carrageenan,12.5 ± 7.6
same,Absolute Cell Number Macrophages,Inflammatory Cell Influx; 48 hr post carrageenan,126 ± 43
same,Absolute Cell Number Neutrophils,Inflammatory Cell Influx; 48 hr post carrageenan,134 ± 77
same,Absolute Cell Number Lymphocytes,Inflammatory Cell Influx; 72 hr post carrageenan,45.1 ± 42
same,Absolute Cell Number Macrophages,Inflammatory Cell Influx; 72 hr post carrageenan,255 ± 125
same,Absolute Cell Number Neutrophils,Inflammatory Cell Influx; 72 hr post carrageenan,48.4 ± 28
same,lesions at necropsy,acute toxicity in mice,No lesions were visible
same,mean body weight or mean body weight gain,acute toxicity in mice; control vs treated,no statistical differences
same,clinical effects,"acute toxicity in mice; one mouse at 500 and two at 1,000 mg/kg, day of treatment",Minimal transient clinical effects (hypoactivity and hypersensitivity)
same,PGE2,prostaglandin E2 (PGE2),13.1 ± 6.9(5) pg in peritoneal lavage
